The text below walks through data of ChEMBL document CHEMBL5291721, “A preclinical secondary pharmacology resource illuminates target-adverse drug reaction associations of marketed drugs” (Nat Commun, 2023).

A word on the AC50: it is the concentration at which the activity in the assay is half-maximal.

Assay [1] has as its target T1, 5-hydroxytryptamine receptor 3A (Homo sapiens, UniProt P46098).
T1 sequence (P46098 whole entry): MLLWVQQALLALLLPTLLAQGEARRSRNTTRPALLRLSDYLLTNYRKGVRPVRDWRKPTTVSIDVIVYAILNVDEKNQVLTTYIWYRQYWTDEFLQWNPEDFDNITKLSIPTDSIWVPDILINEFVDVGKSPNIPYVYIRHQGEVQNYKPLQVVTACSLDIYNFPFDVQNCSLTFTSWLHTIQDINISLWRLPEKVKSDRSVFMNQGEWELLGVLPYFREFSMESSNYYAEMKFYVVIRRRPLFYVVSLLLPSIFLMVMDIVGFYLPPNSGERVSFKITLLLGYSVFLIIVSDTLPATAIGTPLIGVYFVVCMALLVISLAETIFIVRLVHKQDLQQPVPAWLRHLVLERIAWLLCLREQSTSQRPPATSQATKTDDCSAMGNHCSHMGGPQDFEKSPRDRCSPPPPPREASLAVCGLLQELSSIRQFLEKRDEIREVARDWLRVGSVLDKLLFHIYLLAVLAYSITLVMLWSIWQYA
The format is functional.

Assay [2] has as its target Neuronal acetylcholine receptor subunit alpha-4 (Homo sapiens, UniProt P43681).
The target of assay [3] is T2, Alpha-1A adrenergic receptor (Homo sapiens, UniProt P35348).
T2 sequence (P35348 whole entry): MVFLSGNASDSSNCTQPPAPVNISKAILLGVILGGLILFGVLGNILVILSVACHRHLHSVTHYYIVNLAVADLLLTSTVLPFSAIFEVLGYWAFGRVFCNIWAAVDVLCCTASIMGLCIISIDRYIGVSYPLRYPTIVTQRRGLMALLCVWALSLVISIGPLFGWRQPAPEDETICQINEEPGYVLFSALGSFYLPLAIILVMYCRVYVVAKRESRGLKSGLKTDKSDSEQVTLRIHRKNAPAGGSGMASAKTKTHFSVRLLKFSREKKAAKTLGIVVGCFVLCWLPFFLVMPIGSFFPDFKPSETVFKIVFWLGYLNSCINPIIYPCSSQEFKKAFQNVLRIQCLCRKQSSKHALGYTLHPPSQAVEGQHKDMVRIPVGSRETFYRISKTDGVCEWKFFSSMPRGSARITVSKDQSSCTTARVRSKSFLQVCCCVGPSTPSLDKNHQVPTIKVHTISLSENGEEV
In kind it is functional, cell-based.

The target in assay [4] is Cannabinoid receptor 1 (Homo sapiens, UniProt P21554). In kind it is functional, cell-based.
Chain of Cannabinoid receptor 1 (P21554 whole entry): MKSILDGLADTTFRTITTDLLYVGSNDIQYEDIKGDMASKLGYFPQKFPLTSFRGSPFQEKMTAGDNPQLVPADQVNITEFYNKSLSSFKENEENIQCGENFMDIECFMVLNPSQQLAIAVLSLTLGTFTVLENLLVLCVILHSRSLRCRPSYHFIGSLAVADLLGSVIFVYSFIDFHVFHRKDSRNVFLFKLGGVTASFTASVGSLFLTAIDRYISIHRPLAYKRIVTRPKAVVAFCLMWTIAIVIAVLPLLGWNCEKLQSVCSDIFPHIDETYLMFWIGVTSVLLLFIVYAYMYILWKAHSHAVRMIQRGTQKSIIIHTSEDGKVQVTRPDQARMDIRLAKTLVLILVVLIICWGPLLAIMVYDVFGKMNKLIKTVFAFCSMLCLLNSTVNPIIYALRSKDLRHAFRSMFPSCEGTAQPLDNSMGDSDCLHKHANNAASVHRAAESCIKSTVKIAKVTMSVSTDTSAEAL
Assay [5] deals with 5-hydroxytryptamine receptor 2A (Homo sapiens, UniProt P28223). In kind it is functional, cell-based.
Chain of 5-hydroxytryptamine receptor 2A (P28223 whole entry): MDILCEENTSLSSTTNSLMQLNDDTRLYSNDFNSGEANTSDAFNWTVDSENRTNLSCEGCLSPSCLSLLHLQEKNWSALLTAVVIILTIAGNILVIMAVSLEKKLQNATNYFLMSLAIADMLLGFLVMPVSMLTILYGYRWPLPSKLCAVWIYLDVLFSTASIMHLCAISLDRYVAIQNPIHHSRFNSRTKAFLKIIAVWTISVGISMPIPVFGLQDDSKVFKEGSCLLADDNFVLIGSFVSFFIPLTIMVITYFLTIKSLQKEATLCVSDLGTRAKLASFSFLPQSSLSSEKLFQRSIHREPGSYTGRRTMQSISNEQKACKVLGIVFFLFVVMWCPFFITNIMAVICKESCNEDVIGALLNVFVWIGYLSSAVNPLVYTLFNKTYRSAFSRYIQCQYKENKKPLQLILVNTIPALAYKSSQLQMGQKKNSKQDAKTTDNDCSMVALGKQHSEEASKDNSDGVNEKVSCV
The target in assay [6] is Motilin receptor (Homo sapiens, UniProt O43193).
Chain of Motilin receptor (O43193 whole entry): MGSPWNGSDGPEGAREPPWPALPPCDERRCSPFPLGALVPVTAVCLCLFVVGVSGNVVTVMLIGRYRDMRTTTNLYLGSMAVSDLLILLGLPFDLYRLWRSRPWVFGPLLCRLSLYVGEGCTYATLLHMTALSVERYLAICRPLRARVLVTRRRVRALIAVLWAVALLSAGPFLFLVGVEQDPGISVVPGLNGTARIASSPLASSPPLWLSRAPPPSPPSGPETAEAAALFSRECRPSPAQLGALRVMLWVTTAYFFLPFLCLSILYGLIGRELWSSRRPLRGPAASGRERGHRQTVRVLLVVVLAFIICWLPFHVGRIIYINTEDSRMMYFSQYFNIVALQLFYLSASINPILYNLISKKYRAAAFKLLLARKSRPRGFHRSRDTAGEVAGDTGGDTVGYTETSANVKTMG
For assay [7], the target named is D(3) dopamine receptor (Homo sapiens, UniProt P35462).
Chain of D(3) dopamine receptor (P35462 whole entry): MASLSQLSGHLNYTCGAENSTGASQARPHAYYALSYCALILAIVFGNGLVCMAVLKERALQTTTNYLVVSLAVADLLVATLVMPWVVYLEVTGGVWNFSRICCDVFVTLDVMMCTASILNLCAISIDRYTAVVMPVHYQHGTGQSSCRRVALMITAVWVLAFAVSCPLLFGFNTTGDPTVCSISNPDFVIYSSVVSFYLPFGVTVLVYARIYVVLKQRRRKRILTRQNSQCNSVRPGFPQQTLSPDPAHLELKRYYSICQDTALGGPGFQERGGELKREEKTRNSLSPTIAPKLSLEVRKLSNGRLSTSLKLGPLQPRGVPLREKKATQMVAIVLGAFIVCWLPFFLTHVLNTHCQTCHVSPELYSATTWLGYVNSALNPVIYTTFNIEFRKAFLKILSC
Assay [8] addresses Sodium-dependent noradrenaline transporter (Homo sapiens, UniProt P23975).
In assay [9] the target is T3, Prostaglandin G/H synthase 1 (Rattus norvegicus, UniProt Q63921).
T3 sequence (Q63921 whole entry): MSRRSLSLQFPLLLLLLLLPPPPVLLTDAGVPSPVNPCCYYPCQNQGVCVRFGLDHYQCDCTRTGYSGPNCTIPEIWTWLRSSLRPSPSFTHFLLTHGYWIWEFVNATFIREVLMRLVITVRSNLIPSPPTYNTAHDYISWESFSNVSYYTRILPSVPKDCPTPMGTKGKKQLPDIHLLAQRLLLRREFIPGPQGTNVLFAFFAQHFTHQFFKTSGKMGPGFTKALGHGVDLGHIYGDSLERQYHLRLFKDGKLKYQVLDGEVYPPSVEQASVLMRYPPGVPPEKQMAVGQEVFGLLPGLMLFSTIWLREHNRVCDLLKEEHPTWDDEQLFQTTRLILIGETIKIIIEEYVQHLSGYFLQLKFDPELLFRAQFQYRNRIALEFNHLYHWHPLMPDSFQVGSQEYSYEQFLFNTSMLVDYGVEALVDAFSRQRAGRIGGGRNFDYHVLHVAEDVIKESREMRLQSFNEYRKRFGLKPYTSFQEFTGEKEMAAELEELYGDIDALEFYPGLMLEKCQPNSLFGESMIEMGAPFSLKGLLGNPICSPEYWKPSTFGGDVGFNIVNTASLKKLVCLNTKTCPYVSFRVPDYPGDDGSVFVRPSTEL
In kind it is functional.

In assay [10] the target is T4, Alpha-2A adrenergic receptor (Homo sapiens, UniProt P08913).
T4 sequence (P08913 whole entry): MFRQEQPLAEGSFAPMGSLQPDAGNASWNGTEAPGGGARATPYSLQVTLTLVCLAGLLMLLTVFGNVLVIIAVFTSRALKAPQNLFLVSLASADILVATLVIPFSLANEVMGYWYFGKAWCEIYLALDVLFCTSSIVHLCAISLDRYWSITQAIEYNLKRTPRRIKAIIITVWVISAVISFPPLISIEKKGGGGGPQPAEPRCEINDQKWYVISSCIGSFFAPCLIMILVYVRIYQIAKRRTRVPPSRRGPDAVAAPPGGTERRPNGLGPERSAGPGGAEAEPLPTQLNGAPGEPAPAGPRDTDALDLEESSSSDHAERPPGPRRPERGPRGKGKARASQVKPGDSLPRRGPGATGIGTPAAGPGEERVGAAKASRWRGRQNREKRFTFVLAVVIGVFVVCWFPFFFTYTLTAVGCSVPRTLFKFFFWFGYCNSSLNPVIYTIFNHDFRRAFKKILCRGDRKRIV
In kind it is functional, cell-based.

The target of assay [11] is T2, Alpha-1A adrenergic receptor. In kind it is functional, cell-based. The source holds these as a separate data set.
The target in assay [12] is Voltage-gated inwardly rectifying potassium channel KCNH2 (Homo sapiens, UniProt Q12809). The format is functional. The following applies: read-out: AC50.
Chain of Voltage-gated inwardly rectifying potassium channel KCNH2 (Q12809 whole entry): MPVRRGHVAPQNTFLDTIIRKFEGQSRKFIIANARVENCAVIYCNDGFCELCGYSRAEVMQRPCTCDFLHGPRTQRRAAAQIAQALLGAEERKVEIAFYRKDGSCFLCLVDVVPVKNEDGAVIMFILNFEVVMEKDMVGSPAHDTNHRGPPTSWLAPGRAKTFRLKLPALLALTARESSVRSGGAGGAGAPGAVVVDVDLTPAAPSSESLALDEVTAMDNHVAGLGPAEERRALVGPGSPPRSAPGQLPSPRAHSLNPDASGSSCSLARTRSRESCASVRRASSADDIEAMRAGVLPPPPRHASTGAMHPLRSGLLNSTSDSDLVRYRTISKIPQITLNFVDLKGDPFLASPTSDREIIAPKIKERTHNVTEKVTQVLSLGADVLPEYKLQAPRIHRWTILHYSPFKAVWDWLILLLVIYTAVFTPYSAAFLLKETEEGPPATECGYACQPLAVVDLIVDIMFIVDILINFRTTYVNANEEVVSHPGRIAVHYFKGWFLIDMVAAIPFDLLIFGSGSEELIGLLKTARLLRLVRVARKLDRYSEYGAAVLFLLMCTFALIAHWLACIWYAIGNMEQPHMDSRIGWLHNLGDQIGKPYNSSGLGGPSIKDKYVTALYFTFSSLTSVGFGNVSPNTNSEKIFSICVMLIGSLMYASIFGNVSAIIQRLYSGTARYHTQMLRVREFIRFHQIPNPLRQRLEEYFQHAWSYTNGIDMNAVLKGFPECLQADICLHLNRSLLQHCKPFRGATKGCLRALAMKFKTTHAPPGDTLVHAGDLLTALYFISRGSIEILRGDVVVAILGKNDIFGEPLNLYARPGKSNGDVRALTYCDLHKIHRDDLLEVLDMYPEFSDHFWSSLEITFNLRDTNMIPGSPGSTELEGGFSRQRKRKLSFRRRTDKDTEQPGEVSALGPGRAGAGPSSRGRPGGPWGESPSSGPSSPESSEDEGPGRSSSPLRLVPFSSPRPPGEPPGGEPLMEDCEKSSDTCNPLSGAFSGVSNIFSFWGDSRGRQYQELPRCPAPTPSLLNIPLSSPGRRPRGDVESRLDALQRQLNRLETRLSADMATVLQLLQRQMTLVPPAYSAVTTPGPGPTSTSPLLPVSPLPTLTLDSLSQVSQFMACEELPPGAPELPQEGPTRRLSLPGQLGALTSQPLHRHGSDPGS

SMILES strings stand for the structures.
Note: assay procedure not described here.

Chain of Sodium-dependent noradrenaline transporter (P23975 whole entry): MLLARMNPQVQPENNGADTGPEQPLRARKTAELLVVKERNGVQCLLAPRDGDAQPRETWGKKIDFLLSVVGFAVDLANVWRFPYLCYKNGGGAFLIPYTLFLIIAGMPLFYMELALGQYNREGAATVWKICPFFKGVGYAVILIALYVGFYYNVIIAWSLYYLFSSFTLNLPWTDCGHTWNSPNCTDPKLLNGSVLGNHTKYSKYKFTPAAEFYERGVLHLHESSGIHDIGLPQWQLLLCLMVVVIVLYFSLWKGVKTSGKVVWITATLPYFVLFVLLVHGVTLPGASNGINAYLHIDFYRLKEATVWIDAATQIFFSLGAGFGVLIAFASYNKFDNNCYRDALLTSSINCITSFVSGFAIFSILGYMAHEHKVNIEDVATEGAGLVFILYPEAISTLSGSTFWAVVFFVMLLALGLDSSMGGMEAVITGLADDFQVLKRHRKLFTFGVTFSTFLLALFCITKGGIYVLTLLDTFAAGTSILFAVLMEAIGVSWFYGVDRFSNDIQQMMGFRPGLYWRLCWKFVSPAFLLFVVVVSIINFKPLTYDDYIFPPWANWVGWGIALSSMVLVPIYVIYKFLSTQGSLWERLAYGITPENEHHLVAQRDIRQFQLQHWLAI
Chain of Neuronal acetylcholine receptor subunit alpha-4 (P43681 whole entry): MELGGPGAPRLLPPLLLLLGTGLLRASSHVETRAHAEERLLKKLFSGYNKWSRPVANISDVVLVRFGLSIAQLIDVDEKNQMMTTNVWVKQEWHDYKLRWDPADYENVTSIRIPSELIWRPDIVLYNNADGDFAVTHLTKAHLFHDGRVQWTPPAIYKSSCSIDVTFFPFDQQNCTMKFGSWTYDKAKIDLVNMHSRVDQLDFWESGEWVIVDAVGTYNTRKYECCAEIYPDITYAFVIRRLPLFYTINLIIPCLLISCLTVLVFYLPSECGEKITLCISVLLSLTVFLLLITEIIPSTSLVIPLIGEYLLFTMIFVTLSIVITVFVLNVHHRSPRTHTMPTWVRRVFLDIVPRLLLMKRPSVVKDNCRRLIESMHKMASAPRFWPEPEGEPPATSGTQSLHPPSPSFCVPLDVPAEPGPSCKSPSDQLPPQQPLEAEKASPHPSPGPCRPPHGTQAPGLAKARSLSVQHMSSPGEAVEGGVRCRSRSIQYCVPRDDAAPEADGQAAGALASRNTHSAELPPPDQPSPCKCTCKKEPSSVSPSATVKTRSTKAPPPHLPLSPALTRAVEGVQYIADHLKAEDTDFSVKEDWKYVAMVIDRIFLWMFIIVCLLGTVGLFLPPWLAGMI

With `CCN1C(=O)NC(c2ccccc2)C1=O` (centres undefined) [ETHOTOIN], the concentration at half-maximal activity (AC50) in assay [1], in assay [2], in assay [3], in assay [4], in assay [5] and in assay [6] was > 30 µM in each case. Further, the concentration at half-maximal activity (AC50) in assay [7] is > 30 µM; in assay [8], > 30 µM; in assay [9], 22 µM; in assay [10], > 30 µM; in assay [11], > 30 µM; in assay [12] it was > 30 µM.
Regarding `CCCCC[C@H](O)CC[C@@H]1[C@H]2Cc3cccc(OCC(=O)O)c3C[C@H]2C[C@H]1O` [TREPROSTINIL], the half-maximal activity concentration (AC50) in [1], in assay [2], in assay [3], in assay [4], in assay [5] and in assay [6] was > 30 µM each time. In addition, the AC50 in [7], in [8], in [9], in assay [10], in [11] and in [12] was > 30 µM in each case.
Take `CS(=O)(=O)NC(=O)CCC/C=C\C[C@H]1C(=O)C[C@@H](O)[C@@H]1/C=C/[C@@H](O)COc1ccccc1` [SULPROSTONE]: the half-maximal activity concentration (AC50) in assay [1], in [2], in [3], in assay [4], in assay [5] and in [6] was > 30 µM each time. Moreover, the AC50 in [7], in assay [8], in assay [9], in assay [10], in [11] and in assay [12] was > 30 µM in each case.
`CCN(CC)CCCN(c1ccccc1)C1Cc2ccccc2C1` [APRINDINE]: the half-maximal activity concentration (AC50) in assay [1] is > 30 µM; in assay [2] it was > 30 µM; in assay [3], 14 µM; in [4], > 30 µM; in [5] it was > 30 µM; in assay [6], > 30 µM. Further, the half-maximal activity concentration (AC50) is 3.15 µM in assay [7]; 2.3 µM in [8]; > 30 µM in assay [9]; > 30 µM in [10]; > 30 µM in assay [11]; 1 µM in assay [12].
For the compound `CCCO[C@H]1[C@@H]([C@@H](COCc2ccc(Cl)cc2)OCc2ccc(Cl)cc2)OC(OCC)[C@@H]1O` (some centres undefined) [CLOBENOSIDE], the AC50 in assay [1], in assay [2], in assay [3], in assay [4], in assay [5] and in [6] was > 30 µM each time. For the same compound, the AC50 in assay [7] was > 30 µM; in assay [8], > 30 µM; in assay [9], > 10 µM; in [10] it was > 30 µM; in assay [11], > 30 µM; in assay [12] it was > 30 µM.
As to `COc1ccc(-n2nc(C(N)=O)c3c2C(=O)N(c2ccc(N4CCCCC4=O)cc2)CC3)cc1` [APIXABAN], the AC50 in [1], in assay [2], in assay [3], in [4], in [5] and in assay [6] was > 30 µM in each case. Further, the concentration at half-maximal activity (AC50) in assay [7], in [8], in assay [9], in [10], in [11] and in [12] was > 30 µM in each case.
Turning to `CC1=C(/C=C/C(C)=C/C=C/C(C)=C/C(=O)Oc2c(C)c(C)c3c(c2C)CCC(C)(CCCC(C)CCCC(C)CCCC(C)C)O3)C(C)(C)CCC1` (centres undefined) [TRETINOIN TOCOFERIL], the half-maximal activity concentration (AC50) in assay [1], in assay [2], in assay [3], in assay [4], in [5] and in assay [6] was > 30 µM each time. Moreover, the AC50 in assay [7], in [8], in assay [9], in assay [10], in assay [11] and in assay [12] was > 30 µM each time.
